The source of these data is patent US20240025893A1, “PYRIMIDINE-AND NITROGEN-CONTAINING BICYCLIC COMPOUND” (Asahi Kasei Pharma Corporation, priority 2020, published 2024).

One assay concerns the target human IRAK-4 (Homo sapiens (Human), UniProt Q9NWZ3). The assay is described as follows: Measurement of human IRAK-4 inhibitory activity (TR-FRET, peptide substrate phosphorylation, 10 μM ATP). The format is biochemical. As to conditions: 1 nM IRAK-4, 10 μM ATP, 23° C., 30 minutes; average values. The procedure, abridged:
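With 1 nM IRAK-4, 0.5 μM biotinylated peptide and 10 μM ATP, compound incubated 30 min at 23 °C in 50 mM HEPES pH 7.2 with Mg2+/Mn2+. Stopped with EDTA plus europium-cryptate anti-phosphopeptide antibody and streptavidin-XL665, 60 min at 23 °C. Activity taken as the 665/620 nm TR-FRET ratio.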

Assay [1] relates to LPS-stimulated TNFα production in THP-1 cells. The assay can be described thus: LPS-stimulated TNFα production inhibition test using human acute monocytic leukemia cell strain THP-1. The format is cell-based. The following applies: Homo sapiens, THP-1, 4 h, LPS 2.5 ng/mL, average values. The procedure, abridged:
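THP-1 cells were preincubated with compound for 1 h at 37 °C, then stimulated with LPS (2.5 ng/mL final) for 4 h. Supernatant TNFα was quantified by HTRF (620/665 nm ratio) against a calibration curve. IC50 came from a 4-parameter logistic fit, with no-LPS set as 100% and no-compound as 0% suppression.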

The structures appear in SMILES notation.

Chain of human IRAK-4 (Q9NWZ3 whole entry): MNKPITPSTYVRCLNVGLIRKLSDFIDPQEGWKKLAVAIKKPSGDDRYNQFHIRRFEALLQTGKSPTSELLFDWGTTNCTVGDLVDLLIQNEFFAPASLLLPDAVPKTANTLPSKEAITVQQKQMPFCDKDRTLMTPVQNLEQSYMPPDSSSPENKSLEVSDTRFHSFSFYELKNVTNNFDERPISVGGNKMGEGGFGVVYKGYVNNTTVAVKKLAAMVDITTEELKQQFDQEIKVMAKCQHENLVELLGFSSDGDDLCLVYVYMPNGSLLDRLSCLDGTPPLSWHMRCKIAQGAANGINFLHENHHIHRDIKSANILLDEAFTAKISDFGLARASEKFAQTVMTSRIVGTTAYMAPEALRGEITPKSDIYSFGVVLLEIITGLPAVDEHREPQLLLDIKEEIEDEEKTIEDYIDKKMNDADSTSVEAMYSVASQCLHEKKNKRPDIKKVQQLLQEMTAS

The IC50 is the midpoint of a concentration-inhibition curve. The low end stands for greater potency, the high end for weaker potency. For the compound `COc1c(-c2cnc(CO[C@H]3CCC[C@@H]3O)nc2)ccc2nc(NC(=O)[C@H]3C[C@@H](N4CCN(C(=O)OC(C)(C)C)C[C@@H]4C)C3)sc12` [c-03-01, tert-Butyl (S)-4-((1s,3R)-3-((6-(2-((((1S,2S)-2-hydroxycyclopentyl)oxy)methyl)pyrimidin-5-yl)-7-methoxybenzo[d]thiazol-2-yl)carbamoyl)cyclobutyl)-3-methylpiperazine-1-carboxylate], the IC50 against human IRAK-4 turned out to be 16.6 nM; in assay [1], 49 nM.
The like results for `COc1c(-c2cnc(CO[C@H]3CCC[C@@H]3O)nc2)ccc2nc(NC(=O)[C@H]3C[C@@H](N4CCN(C(=O)c5ccnc(C)c5)C[C@@H]4C)C3)sc12` [c-03-02, (1R,3s)-N-(6-(2-((((1S,2S)-2-Hydroxycyclopentyl)oxy)methyl)pyrimidin-5-yl)-7-methoxybenzo[d]thiazol-2-yl)-3-((S)-2-methyl-4-(2-methylisonicotinoyl)piperazin-1-yl)cyclobutane-1-carboxamide] were, in that order, 2.36 nM and 13 nM.
The like results for `COCC(=O)N1CCN([C@H]2C[C@@H](C(=O)Nc3nc4ccc(-c5cnc(CO[C@H]6CCC[C@@H]6O)nc5)c(OC)c4s3)C2)[C@@H](C)C1` [c-03-03] were, in that order, 2.54 nM and 230 nM.
As to `COCCOCC(=O)N1CCN([C@H]2C[C@@H](C(=O)Nc3nc4ccc(-c5cnc(CO[C@H]6CCC[C@@H]6O)nc5)c(OC)c4s3)C2)[C@@H](C)C1` [c-03-04], the IC50 at human IRAK-4 is 2.69 nM; in assay [1] it was 320 nM.
Taken in the same sequence, the figures for `COc1c(-c2cnc(CO[C@H]3CC(F)(F)C[C@@H]3O)nc2)ccc2nc(NC(=O)C3CC3)sc12` [c-04-01, N-(6-(2-((((1S,2S)-4,4-Difluoro-2-hydroxycyclopentyl)oxy)methyl)pyrimidin-5-yl)-7-methoxybenzo[d]thiazol-2-yl)cyclopropanecarboxamide] were 4.04 nM and 115 nM.
Taken in the same sequence, the figures for `CCOc1c(-c2cnc(CO[C@H]3CCC[C@@H]3O)nc2)ccc2nc(NC(=O)C3CC3)sc12` [c-04-02] were 6.33 nM and 207 nM.
Taken in the same sequence, the figures for `COCCOc1c(-c2cnc(CO[C@H]3CCC[C@@H]3O)nc2)ccc2nc(NC(=O)C3CC3)sc12` [c-04-03] were 12.4 nM and 184 nM.
As to `CN1CC(F)(COc2c(-c3cnc(CO[C@H]4CCC[C@@H]4O)nc3)ccc3nc(NC(=O)C4CC4)sc23)C1` [c-05-01, N-(7-((3-Fluoro-1-methylazetidin-3-yl)methoxy)-6-(2-((((1S,2S)-2-hydroxycyclopentyl)oxy)methyl)pyrimidin-5-yl)benzo[d]thiazol-2-yl)cyclopropanecarboxamide], the IC50 on human IRAK-4 was determined as 5.48 nM; in assay [1] it was 233 nM.
Taken in the same sequence, the figures for `O=C(Nc1nc2ccc(-c3cnc(CO[C@H]4CCC[C@@H]4O)nc3)c(OCCO)c2s1)C1CC1` [c-06-01, N-(6-(2-((((1S,2S)-2-Hydroxycyclopentyl)oxy)methyl)pyrimidin-5-yl)-7-(2-hydroxyethoxy)benzo[d]thiazol-2-yl)cyclopropanecarboxamide] were 5.45 nM and 358 nM.
The like results for `O=C(Nc1nc2ccc(-c3cnc(CO[C@H]4CCC[C@@H]4O)nc3)c(OCc3nccs3)c2s1)C1CC1` [c-06-02] were, in that order, 10.7 nM and 317 nM.
As to `O=C(Nc1nc2ccc(-c3cnc(CO[C@H]4CCC[C@@H]4O)nc3)c(OC[C@H]3CCOC3)c2s1)C1CC1` [c-06-03], the IC50 against human IRAK-4 was found to be 17.1 nM; in assay [1] it was 277 nM.
Taken in the same sequence, the figures for `Cc1c(-c2cnc(CO[C@H]3CCC[C@@H]3O)nc2)ccc2nc(NC(=O)C3CC3)sc12` [c-07-01] were 6.48 nM and 347 nM.
Take `C[C@@H]1C[C@H]1C(=O)Nc1nc2ccc(-c3cnc(CO[C@H]4CCC[C@@H]4O)nc3)cc2s1` [d-01-01, (1R,2R)—N-(6-(2-((((1S,2S)-2-Hydroxycyclopentyl)oxy)methyl)pyrimidin-5-yl)benzo[d]thiazol-2-yl)-2-methylcyclopropane-1-carboxamide]: the IC50 against human IRAK-4 was determined as 1.31 nM; in assay [1], 85 nM.
For the compound `C[C@]1(O)C[C@@H](C(=O)Nc2nc3ccc(-c4cnc(CO[C@H]5CCC[C@@H]5O)nc4)cc3s2)C1` [d-01-02], the IC50 is 2.75 nM at human IRAK-4 and 165 nM in assay [1].
Turning to `CO[C@]1(C)C[C@H](C(=O)Nc2nc3ccc(-c4cnc(CO[C@H]5CCC[C@@H]5O)nc4)cc3s2)C1` [d-01-03], the IC50 against human IRAK-4 amounted to 2.16 nM; in assay [1], 175 nM.
The like results for `CC(C)(C)OC(=O)N1CC2(CC(C(=O)Nc3nc4ccc(-c5cnc(CO[C@H]6CCC[C@@H]6O)nc5)cc4s3)C2)C1` [d-01-04] were, in that order, 6.39 nM and 178 nM.
Taken in the same sequence, the figures for `O=C(Nc1nc2ccc(-c3cnc(CO[C@H]4CCC[C@@H]4O)nc3)cc2s1)C1CC2(CCOCC2)C1` [d-01-05] were 2.07 nM and 101 nM.
Taken in the same sequence, the figures for `O=C(Nc1nc2ccc(-c3cnc(CO[C@H]4CCC[C@@H]4O)nc3)cc2s1)C1CC2(C1)CC(F)(F)C2` [d-01-06] were 3.62 nM and 174 nM.
For the compound `O=C(Nc1nc2ccc(-c3cnc(CO[C@H]4CCC[C@@H]4O)nc3)cc2s1)C1CC2(COC2)C1` [d-01-07], the IC50 came out at 1.75 nM at human IRAK-4 and 184 nM in assay [1].
Taken in the same sequence, the figures for `C[C@]1(F)C[C@H](C(=O)Nc2nc3ccc(-c4cnc(CO[C@H]5CCC[C@@H]5O)nc4)cc3s2)C1` [d-01-08] were 2.89 nM and 202 nM.
On to `CC(C)(C)O[C@H]1C[C@@H](C(=O)Nc2nc3ccc(-c4cnc(CO[C@H]5CCC[C@@H]5O)nc4)cc3s2)C1` [d-02-01, (1s,3s)-3-(tert-Butoxy)-N-(6-(2-((((1S,2S)-2-hydroxycyclopentyl)oxy)methyl)pyrimidin-5-yl)benzo[d]thiazol-2-yl)cyclobutane-1-carboxamide], for which the IC50 at human IRAK-4 was found to be 1.83 nM; in assay [1], 77 nM.
The like results for `CC(=O)N1CCC2(CC1)CC(C(=O)Nc1nc3ccc(-c4cnc(CO[C@H]5CCC[C@@H]5O)nc4)cc3s1)C2` [d-03-01, 7-Acetyl-N-(6-(2-((((1S,2S)-2-hydroxycyclopentyl)oxy)methyl)pyrimidin-5-yl)benzo[d]thiazol-2-yl)-7-azaspiro[3,5]nonane-2-carboxamide] were, in that order, 1.38 nM and 67 nM.
The like results for `CC(C)C(=O)N1CCC2(CC1)CC(C(=O)Nc1nc3ccc(-c4cnc(CO[C@H]5CCC[C@@H]5O)nc4)cc3s1)C2` [d-03-05] were, in that order, 2.52 nM and 93 nM.
The like results for `O=C(Nc1nc2ccc(-c3cnc(CO[C@H]4CCC[C@@H]4O)nc3)cc2s1)C1CC2(CCN(C(=O)c3ccccn3)CC2)C1` [d-03-06] were, in that order, 0.849 nM and 125 nM.
Regarding `O=C(Nc1nc2ccc(-c3cnc(CO[C@H]4CCC[C@@H]4O)nc3)cc2s1)C1CC2(CCN(C(=O)c3cccnc3)CC2)C1` [d-03-07], the IC50 stood at 0.852 nM at human IRAK-4 and 139 nM in assay [1].
Regarding `O=C(Nc1nc2ccc(-c3cnc(CO[C@H]4CCC[C@@H]4O)nc3)cc2s1)C1CC2(CCN(CC(F)(F)F)CC2)C1` [d-03-08], the IC50 at human IRAK-4 came to 1.28 nM; in assay [1], 137 nM.
The like results for `O=C(Nc1nc2ccc(-c3cnc(CO[C@H]4CCC[C@@H]4O)nc3)cc2s1)C1CC2(CCN(C(=O)C3COC3)CC2)C1` [d-03-09] were, in that order, 1.47 nM and 158 nM.
Taken in the same sequence, the figures for `CCO[C@H]1C[C@@H](C(=O)Nc2nc3ccc(-c4cnc(CO[C@H]5CCC[C@@H]5O)nc4)cc3s2)C1` [d-04-01, (1s,3s)-3-Ethoxy-N-(6-(2-((((1S,2S)-2-hydroxycyclopentyl)oxy)methyl)pyrimidin-5-yl)benzo[d]thiazol-2-yl)cyclobutane-1-carboxamide] were 2.1 nM and 182 nM.
The like results for `COCCO[C@H]1C[C@@H](C(=O)Nc2nc3ccc(-c4cnc(CO[C@H]5CCC[C@@H]5O)nc4)cc3s2)C1` [d-04-02] were, in that order, 2.48 nM and 207 nM.
As for `CCCO[C@H]1C[C@@H](C(=O)Nc2nc3ccc(-c4cnc(CO[C@H]5CCC[C@@H]5O)nc4)cc3s2)C1` [d-04-03], the results for the IC50 (against human IRAK-4; in assay [1]) were 2.22 nM and 162 nM, respectively.
Consider `O=C(Nc1nc2ccc(-c3cnc(CO[C@H]4CCC[C@@H]4O)nc3)cc2s1)[C@H]1C[C@@H](OCc2ccncc2)C1` [d-04-05], for which the IC50 against human IRAK-4 was 2.05 nM; in assay [1], 145 nM.
Taken in the same sequence, the figures for `CN(C)CC1CC(C(=O)Nc2nc3ccc(-c4cnc(CO[C@H]5CCC[C@@H]5O)nc4)cc3s2)C1` (stereo partly drawn) [d-05-01, 3-((Dimethylamino)methyl)-N-(6-(2-((((1S,2S)-2-hydroxycyclopentyl)oxy)methyl)pyrimidin-5-yl)benzo[d]thiazol-2-yl)cyclobutane-1-carboxamide] were 1.51 nM and 182 nM.
Turning to `O=C(Nc1nc2ccc(-c3cnc(CO[C@H]4CCC[C@@H]4O)nc3)cc2s1)C1CC(CN2CC(F)C2)C1` (stereo partly drawn) [d-05-02], the figures for the IC50 (on human IRAK-4; in assay [1]) were 2.1 nM and 223 nM, respectively.
The like results for `O=C(Nc1cc2cc(-c3cnc(CO[C@H]4CCC[C@@H]4O)nc3)ccn2n1)C1CC1` [e-01-01, N-(5-(2-((((1S,2S)-2-hydroxycyclopentyl)oxy)methyl)pyrimidin-5-yl)pyrazolo[1,5-a]pyridin-2-yl)cyclopropanecarboxamide] were, in that order, 2.89 nM and 279 nM.
Taken in the same sequence, the figures for `O=C(Nc1cc2cc(-c3cnc(CO[C@H]4CCC[C@@H]4O)nc3)ccn2n1)[C@@H]1C[C@H]1F` [e-01-02] were 2.48 nM and 225 nM.
